In general, mortality refers to the share of the test organisms that died. Broadly, the melting point is the temperature of the solid-liquid transition.

For one data set, the system named is cabbage plants. Conditions: in vivo, 6 days, 200 ppm. As to the method:
(§1) Activity Against Myzus persicae (Green Peach Aphid)
(§2) (Mixed Population, Feeding/Residual Contact Activity, Plant Damage Evaluation)
(§3) Cabbage plants infested with a mixed population of Myzus persicae are treated with diluted test solutions of the compounds in a spray chamber. 6 days after treatment, samples are checked for mortality and for plant damage (phytotoxicity), visual assessment being made using a 0-100% rating scale (100%=total damage to plant; 0%=no damage to plant). In this test, compounds listed in the tables above show good activity against Myzus persicae and acceptable plant compatibility. For example compounds P1.1, P1.2, P1.3, P1.4, P1.6, P1.7, P1.8, P1.9, P1.10, P1.11 and P1.12 show an activity of greater or equal to 80% against Myzus persicae and damage to cabbage plants less or equal to 10% at a concentration of 200 ppm.

For data set [1], the system named is Myzus persicae (green peach aphid). Kind of data set: Example B5: Activity against Myzus persicae, mixed population, feeding/residual contact activity (infested cabbage plants, spray chamber). It is filed as in vivo. As to conditions: 144 h, infested cabbage plants sprayed, 6 days after treatment. As to the method: as §1, §2, §3
For data set [2] the test system is unchanged. Kind of data set: Example B1: Activity against Myzus persicae, mixed population, feeding/residual contact activity, preventive (sunflower leaf discs). Conditions: foliar, 144 h, sprayed sunflower leaf discs, 6 days incubation. Format: in vivo. As to the method:
as §1
(§4) (Mixed Population, Feeding/Residual Contact Activity, Preventive)
Sunflower leaf discs are placed on agar in a 24-well microtiter plate and sprayed with test solutions. After drying, the leaf discs are infested with an aphid population of mixed ages. After an incubation period of 6 days, samples are checked for mortality and special effects (e.g. phytotoxicity).

The test system is the same in data set [3]. Nature of the data set: Example B2: Activity against Myzus persicae, mixed population, systemic/feeding activity, curative (pea seedlings). It is filed as in vivo. Conditions: 144 h, roots of infested pea seedlings in test solution, 6 days, systemic.
Text: as §1
(Mixed Population, Systemic/Feeding Activity, Curative)
Roots of pea seedlings, infested with an aphid population of mixed ages, are placed directly in the test solutions. 6 days after introduction, samples are checked for mortality and special effects on the plant.

Data set [4] concerns Tetranychus urticae (two-spotted spider mite). Nature of the data set: whole plant or invertebrate. Format: in vivo. Conditions: foliar, 192 h, read-out: activity (egg, larval and adult mortality) against Tetranychus urticae.
Text: Activity Against Tetranychus urticae (Two-Spotted Spider Mite)
as §4
Bean leaf discs on agar in 24-well microtiter plates are sprayed with test solutions. After drying, the leaf discs are infested with mite populations of mixed ages. 8 days later, discs are checked for egg mortality, larval mortality, and adult mortality.

Data set [5] relates to Thrips tabaci (onion thrips). Nature of the data set: Example B3: Activity against Thrips tabaci, mixed population, feeding/residual contact activity, preventive (sunflower leaf discs). It is filed as in vivo. Conditions: foliar, 144 h, sprayed sunflower leaf discs, 6 days incubation. As to the method: Activity Against Thrips tabaci (Onion Thrips)
as §4
Sunflower leaf discs are placed on agar in a 24-well microtiter plate and sprayed with test solutions. After drying, the leaf discs are infested with a thrips population of mixed ages. After an incubation period of 6 days, samples are checked for mortality and special effects (e.g. phytotoxicity).

On to `CON1CCC2(CC1)C(=O)C(Cl)(c1c(C)cc(C)cc1C)C(=O)N2OCC1CCOCC1` (centres unmarked) [Compound P1.10], for which the “damage to cabbage plants (phytotoxicity), 0-100% rating scale” value (shortened to “damage … 0-100% rating scale”) in the data set on cabbage plants is recorded as at most 10%. In data set [1], this compound yielded a mortality at 200 ppm of at least 80%. Besides, the mortality at 400 ppm in data set [2] and in data set [3] was over 80% in each case.
Regarding `CON1CCC2(CC1)C(=O)C(Cl)(c1c(C)cc(C)cc1C)C(=O)N2OC1CCCCC1` (centres unmarked) [Compound P1.6], the “damage … 0-100% rating scale” value with cabbage plants is at most 10%. In data set [1], this compound gave a mortality at 200 ppm of at least 80%.
Turning to `COCON1C(=O)C(c2cc(Br)c(F)cc2C)=C(O)C12CCN(OC)CC2` [Compound P2.89], the melting point lay in the range of 64 to 67 °C.
Still for that read-out and setting: the figure for `COCCON1C(=O)C(c2cc(Br)c(C)cc2C)=C(O)C12CCN(OC)CC2` [Compound P2.73] is 63 to 64 °C.
Turning to `CON1CCC2(CC1)C(=O)C(Cl)(c1c(C)cc(C)cc1C)C(=O)N2OCC1CCCC1` (centres unmarked) [Compound P1.4], the “damage … 0-100% rating scale” value in the data set with cabbage plants was at most 10%. In data set [1], this compound yielded a mortality at 200 ppm of at least 80%.
As for `COCCON1C(=O)C(Cl)(c2c(C)cc(C)cc2C)C(=O)C12CCN(OC)CC2` (centres unmarked) [Compound P1.2], in the data set with cabbage plants, the “damage … 0-100% rating scale” value is at most 10%. The compound further yielded a mortality at 200 ppm in data set [1] of at least 80%. The mortality at 400 ppm in data set [2] and in data set [3] was over 80% in each case.
Compound `CON1CCC2(CC1)C(O)=C(c1c(C)cc(C)cc1C)C(=O)N2OCCOC1CCCCO1` (centres unmarked) [Compound P2.22] displayed a melting point of 135 to 137 °C.
Turning to `COCCON1C(=O)C(c2c(C)cc(Cl)cc2C)=C(O)C12CCN(OC)CC2` [Compound P2.101], the melting point was 161 to 164 °C.
Compound `CON1CCC2(CC1)C(O)=C(c1cc(Br)c(C)cc1C)C(=O)N2OC` [Compound P2.75] showed a melting point of 86 to 87 °C.
`CON1CCC2(CC1)C(O)=C(c1c(C)cc(Cl)cc1C)C(=O)N2OC` [Compound P2.102]: the melting point is 88 to 92 °C.
On to `CON1CCC2(CC1)C(O)=C(c1c(C)cc(Cl)cc1C)C(=O)N2O` [Compound P2.103, 3-(4-Chloro-2,6-dimethyl-phenyl)-1,4-dihydroxy-8-methoxy-1,8-diaza-spiro[4.5]dec-3-en-2-one], for which the melting point lay within 228 to 231 °C.
As to `CON1CCC2(CC1)C(=O)C(Cl)(c1cc(Br)c(C)cc1C)C(=O)N2OC` (centres unmarked) [Compound P1.12], the “damage … 0-100% rating scale” value in the data set with cabbage plants was at most 10%. In data set [1], this compound displayed a mortality at 200 ppm of at least 80%.
The compound `COCON1C(=O)C(c2c(F)ccc(C)c2Cl)=C(O)C12CCN(OC)CC2` [Compound P2.60] yielded a melting point of 155 to 158 °C.
With `CON1CCC2(CC1)C(=O)C(Cl)(c1c(C)cc(C)cc1C)C(=O)N2OCC1CCOC1` (centres unmarked) [Compound P1.9], the “damage … 0-100% rating scale” value with cabbage plants was at most 10%. Besides, the mortality at 200 ppm in data set [1] was at least 80%. The mortality at 400 ppm in data set [2] and in data set [3] was over 80% each time.
Take `CON1CCC2(CC1)C(=O)C(c1c(C)ccc(Cl)c1C)([N+](=O)[O-])C(=O)N2OC` (centres unmarked) [Compound P1.8, 3-(3-Chloro-2,6-dimethyl-phenyl)-1,8-dimethoxy-3-nitro-1,8-diaza-spiro[4.5]decane-2,4-dione]: the “damage … 0-100% rating scale” value with cabbage plants is listed as at most 10%. The same compound displayed a mortality at 200 ppm in data set [1] of at least 80%.
`CON1CCC2(CC1)C(O)=C(c1c(C)cc(Cl)cc1C)C(=O)N2OC1CCCO1` (centres unmarked) [Compound P2.105]: the melting point fell in the range of 137 to 139 °C.
On the same count and under the same terms, the value for `COCON1C(=O)C(c2c(C)cc(-c3ccc(Cl)cc3)cc2C)=C(O)C12CCN(OC)CC2` [Compound P2.15, 3-(4′-Chloro-3,5-dimethyl-biphenyl-4-yl)-4-hydroxy-8-methoxy-1-methoxymethoxy-1,8-diaza-spiro[4.5]dec-3-en-2-one] was 128 °C (dec.).
In the case of `CON1CCC2(CC1)C(=O)C(Cl)(c1c(C)cc(C)cc1C)C(=O)N2OC1CCOC1` (centres unmarked) [Compound P1.11], the “damage … 0-100% rating scale” value in the data set on cabbage plants is on record as at most 10%. The same compound came in with a mortality at 200 ppm in data set [1] of at least 80%. The same compound returned a mortality at 400 ppm in data set [3] of over 80%.
In the case of `CON1CCC2(CC1)C(O)=C(c1c(C)cc(C)cc1C)C(=O)N2OCC1CCCCC1` [Compound P2.96], the melting point lay in the range of 169 to 172 °C.
Still for that read-out and setting: the value for `COCON1C(=O)C(c2c(C)cc(Cl)cc2C)=C(O)C12CCN(OC)CC2` [Compound P2.104] was 176 to 178 °C.
For the compound `COCCON1C(=O)C(Cl)(c2cc(-c3ccc(Cl)cc3)c(F)cc2C)C(=O)C12CCN(OC)CC2` (centres unmarked) [Compound P1.13], in data set [4], the mortality at 400 ppm was over 80%.
With `CCON1C(=O)C(Cl)(c2c(C)cc(C)cc2C)C(=O)C12CCN(OC)CC2` (centres unmarked) [Compound P1.3], in the data set on cabbage plants, the “damage … 0-100% rating scale” value is at most 10%. The mortality at 200 ppm in data set [1] was at least 80%. For the same compound, the mortality at 400 ppm in data set [2], in data set [3] and in data set [5] was over 80% each time.
For `COCON1C(=O)C(Cl)(c2cc(C)ccc2C)C(=O)C12CCN(OC)CC2` (centres unmarked) [Compound P1.1, 3-Chloro-3-(2,5-dimethyl-phenyl)-8-methoxy-1-methoxymethoxy-1,8-diaza-spiro[4.5]decane-2,4-dione], the “damage … 0-100% rating scale” value in the data set on cabbage plants is on record as at most 10%. This compound came in with a mortality at 200 ppm in data set [1] of at least 80%. Further, the mortality at 400 ppm in data set [2] and in data set [3] was over 80% each time.
As for `COCCON1C(=O)C(c2cc(Br)c(F)cc2C)=C(O)C12CCN(OC)CC2` [Compound P2.87], the melting point was 71 to 74 °C.
As to `COCCON1C(=O)C(Cl)(c2cc(C)c(C)cc2Cl)C(=O)C12CCN(OC)CC2` (centres unmarked) [Compound P1.7, 3-Chloro-3-(2-chloro-4,5-dimethyl-phenyl)-8-methoxy-1-(2-methoxy-ethoxy)-1,8-diaza-spiro[4.5]decane-2,4-dione], in the data set on cabbage plants, the “damage … 0-100% rating scale” value is reported as at most 10%. This compound displayed a mortality at 200 ppm in data set [1] of at least 80%. The mortality at 400 ppm in data set [2] and in data set [3] was over 80% each time.

For the origin of these results see patent US20130324404A1, “1, 8 -DIAZASPIRO [4.5] DECANE- 2, 4 -DIONE DERIVATIVES USEFUL AS PESTICIDES” (SYNGENTA PARTICIPATIONS AG, priority 2010, published 2013).
